The source of these data is patent US9315508B2, “Treating diabetes with dipeptidyl peptidase-IV inhibitors” (Merck Sharp & Dohme Corp., priority 2012, dated 2016).

The target of assay [1] is dipeptidyl peptidase-IV enzyme (DPP-4) (Homo sapiens (Human), UniProt P27487). Description: continuous fluorometric DPP-4 inhibition assay with substrate Gly-Pro-AMC. The format is biochemical. The note with it: soluble human DPP-4, Gly-Pro-AMC substrate. The method, then:
Inhibition constants are determined as follows. A continuous fluorometric assay is employed with the substrate Gly-Pro-AMC, which is cleaved by DPP-4 to release the fluorescent AMC leaving group. The kinetic parameters that describe this reaction are as follows: Km=50 μM; kcat=75 s^−1; kcat/Km=1.5×10^6 M^−1s^−1. A typical reaction contains approximately […], 50 μM Gly-Pro-AMC, and buffer (100 mM HEPES, pH 7.5, 0.1 mg/ml BSA) in a total reaction volume of 100 μL. Liberation of AMC is monitored continuously in a 96-well plate fluorometer using an excitation wavelength of 360 nm and an emission wavelength of 460 nm. Under these conditions, approximately 0.8 μM AMC is produced in 30 minutes at 25 degrees C. The enzyme used in these studies was soluble (transmembrane domain and cytoplasmic extension excluded) human protein produced in a baculovirus expression system (Bac-To-Bac, Gibco BRL). […] To measure the dissociation constants for compounds, solutions of inhibitor in DMSO were added to reactions containing enzyme and substrate (final DMSO concentration is 1%). All experiments were conducted at room temperature using the standard reaction conditions described above. To determine the dissociation constants (Ki), reaction rates were fit by non-linear regression to the Michaelis-Menton equation for competitive inhibition. The errors in reproducing the dissociation constants are typically less than two-fold.

The next assay has as its system rats. The conditions noted are these: doubled from day 7 to day 14; cited from earlier work.
Another assay relates to mouse. The note with it: mouse model of cyclophosphamide-induced neutropenia; cited from earlier work.
The next assay has as its target DPP-4 (Homo sapiens (Human), UniProt P27487). The note with it: cited from earlier work.

Sequence of dipeptidyl peptidase-IV enzyme (DPP-4) (P27487 29-766): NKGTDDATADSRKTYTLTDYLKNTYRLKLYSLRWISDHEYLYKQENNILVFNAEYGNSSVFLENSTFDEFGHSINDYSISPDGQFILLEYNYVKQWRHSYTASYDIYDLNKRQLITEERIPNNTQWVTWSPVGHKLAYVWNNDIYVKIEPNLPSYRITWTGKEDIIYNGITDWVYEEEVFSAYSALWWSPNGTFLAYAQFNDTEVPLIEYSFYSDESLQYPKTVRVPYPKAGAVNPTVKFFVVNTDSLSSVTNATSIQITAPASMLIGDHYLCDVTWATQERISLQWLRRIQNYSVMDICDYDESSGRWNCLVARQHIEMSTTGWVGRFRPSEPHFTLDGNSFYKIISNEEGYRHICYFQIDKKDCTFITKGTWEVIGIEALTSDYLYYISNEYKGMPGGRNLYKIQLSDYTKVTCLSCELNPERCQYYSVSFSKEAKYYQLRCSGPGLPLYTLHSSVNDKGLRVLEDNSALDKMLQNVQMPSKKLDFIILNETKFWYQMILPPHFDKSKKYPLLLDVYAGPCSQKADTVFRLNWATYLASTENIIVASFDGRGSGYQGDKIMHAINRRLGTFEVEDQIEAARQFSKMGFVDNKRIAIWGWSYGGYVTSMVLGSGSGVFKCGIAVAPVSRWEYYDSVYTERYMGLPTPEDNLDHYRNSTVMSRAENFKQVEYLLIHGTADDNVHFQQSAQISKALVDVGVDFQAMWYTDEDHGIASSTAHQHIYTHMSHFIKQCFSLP
Sequence of DPP-4 (P27487 39-766, species assumed): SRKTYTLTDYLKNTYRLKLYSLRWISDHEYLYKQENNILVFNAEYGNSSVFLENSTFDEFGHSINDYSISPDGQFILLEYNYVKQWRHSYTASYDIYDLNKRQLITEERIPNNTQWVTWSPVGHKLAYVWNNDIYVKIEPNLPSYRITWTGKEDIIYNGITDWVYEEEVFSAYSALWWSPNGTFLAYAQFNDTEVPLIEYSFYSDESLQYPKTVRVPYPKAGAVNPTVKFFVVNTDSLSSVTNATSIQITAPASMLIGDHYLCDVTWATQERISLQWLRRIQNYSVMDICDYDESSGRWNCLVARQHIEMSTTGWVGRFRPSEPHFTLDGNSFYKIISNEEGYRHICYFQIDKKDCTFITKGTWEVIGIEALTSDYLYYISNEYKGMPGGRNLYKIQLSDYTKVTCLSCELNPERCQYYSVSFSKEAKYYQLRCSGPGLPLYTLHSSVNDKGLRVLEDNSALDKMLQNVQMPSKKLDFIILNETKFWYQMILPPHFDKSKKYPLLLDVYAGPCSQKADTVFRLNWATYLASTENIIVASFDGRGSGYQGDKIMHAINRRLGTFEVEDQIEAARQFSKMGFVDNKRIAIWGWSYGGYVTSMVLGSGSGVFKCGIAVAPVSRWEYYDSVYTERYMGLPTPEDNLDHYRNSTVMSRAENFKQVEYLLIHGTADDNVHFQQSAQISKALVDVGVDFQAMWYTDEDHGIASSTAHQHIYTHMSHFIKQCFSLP

With `N[C@H]1CC(N2Cc3c[nH]nc3C2)c2ccccc2[C@@H]1c1cc(F)ccc1F` (stereo partly drawn) [Example 1], in assay [1], the IC50 was greater than 1000 nM.

Consider `CS(=O)(=O)n1cc2c(n1)CN([C@@H]1C[C@H](N)[C@@H](c3cc(F)ccc3F)[C@H]3CC13)C2` (stereo partly drawn) [Example 2], for which inhibition in assay [1] was half-maximal at 9 nM (IC50).

`CS(=O)(=O)n1cc2c(n1)CN([C@@H]1C[C@H](N)[C@@H](c3cc(F)ccc3F)[C@@H]3C[C@@H]31)C2` [Example 3] yielded a half-maximal inhibitory concentration (IC50) in assay [1] of 5.4 nM.

In the case of `CC(C)N1CCC(c2ccccc2)(c2ccccc2)CC1` [Prodipine, Pro-Pro-diphenyl-phosphonate], the cardiac allograft survival in the assay with rats is 14 day.

Regarding `CC(C)[C@H](N)C(=O)N1CCC[C@H]1B(O)O` [Val-Boro-Pro], the hematopoiesis result with mouse is reported as “stimulated hematopoiesis”.

In the case of `CC[C@H](C)[C@H](N)C(=O)N1CCC[C@H]1C(=O)N[C@H](C(=O)O)[C@@H](C)CC` [diprotin A], the “degradation of GRF in plasma to GRF[3-44]” value at DPP-4 is “prevented”.
